Assay results: US4975450A, “Antidiarrheal” (Slovenska Akademia Vied, priority 1987, dated 1990)
Where two headings read alike, the source gives them in different places.

Key:
[1] = tested on: intestinal passage of carbo adsorbens; experiment: intestinal passage of carbo adsorbens, mice; format: in vivo; conditions: for intestinal passage of carbo adsorbens, complete intestine: atropin 5 mg/kg, reference 75.0 ± 1.9
Procedure: (§1) The active substance in 20 mg dose per one kg, if administered 30 minutes before administering castor oil, has extended the latent period up to the beginning of the diarrhea from 91.2±4.4 minutes to 127.3±6.3 minutes. […] (Table 1).
(§2) TABLE 1 - Influence of pharmaceutical substances on the intestinal passage of carbo adsorbens (100% is the complete intestine length): […]

[2] = tested on: intestinal passage of carbo adsorbens; experiment: intestinal passage of carbo adsorbens, rats; format: in vivo; conditions: for intestinal passage of carbo adsorbens, small intestines: 100% is the complete intestine length, substance 20 mg/kg, atropin 5 mg/kg, reference 58.7 ± 2.5
Procedure: as §1, §2

calves = experiment: reduction of diarrhea occurrence in new-born calves; format: in vivo
Procedure: With the referenoe individuals (n=66) diarrhea has occurred with about 80% thereof. The medicament of the invention, if administered for 2 to 3 days in a 10 mg daily dose, reduced the diarrhea ocourrence by 40-50%, and with a 20 mg d aily dose during 3 days of administration even less than 4% (P<0.01). In the control group of calves to which no medicament was administered, a multiple mortality has been observed.

[3] = cited from earlier work
[4] = V. Nosalova et al 1986; cited from earlier work
in vivo [5] = conditions: rabbit
rats = experiment: one month toxicity study of rats; format: in vivo
dogs (beagle) = experiment: chronic six months toxicity study on dogs; format: in vivo
in vivo [6] = conditions: rat
in vivo [7] = conditions: mouse
in vivo [8] = conditions: guinea pig
Salmonella typhimurium = experiment: mutation tests and reparative tests, Salmonella typhimurium
adenylate cyclase = conditions: Hynie et al 1986; cited from earlier work
rat = conditions: in vivo
mice [9] = conditions: mouse, in vivo
mice [10] = experiment: teratological and embryotoxic experiments on mice
mice [11] = conditions: mouse, in vivo; remark: listed apart in the source
mice [12] = experiment: castor oil-provoked diarrhea in mice; format: in vivo; conditions: 20 mg/kg, 30 minutes before castor oil; control 91.2±4.4 minutes
[13] = retention of stomach content; format: in vivo; conditions: active substance 10-20 mg/kg; atropin dose not stated
[14] = 100% is the complete intestine length, substance 20 mg/kg

Structure (SMILES): CN1C2CCC1CC(OC(=O)C(CO)c1ccccc1)C2 (stereo not shown) [atropin, reference compound]
- intestinal passage of carbo adsorbens, complete intestine [1, 14]: 51.4 ± 2.6%
- intestinal passage of carbo adsorbens, small intestines [2]: 46.3 ± 2.5%

Structure (SMILES): CCCCCOc1cccc(NC(=O)O[C@@H]2CCCC[C@H]2N2CCCC2)c1 (relative stereo) [substance of the formula, (±)-trans-2(1-pyrrolidinyl) cyclohexylester of 3-(n)-pentyloxycarbanilic acid]
- mortality of untreated control calves compared with treated calves (in words) (calves; bovine, in vivo): a statistically considerably higher number perish
- reduction of diarrhea occurrence (calves; calves, average 40 kg, 10 mg daily dose, 2 to 3 days, reference about 80% (n=66)): 40-50%
- diarrhea occurrence (printed as: reduced ... even less than 4%) (calves; calves, average 40 kg, 20 mg daily dose, 3 days, P<0.01, reference about 80% (n=66)): less than 4%
- reduction of diarrhea (in words) (calves; calves, 10 and 20 mg per diem, one to three days after birth): significant reduction of diarrhea with involved animals depending upon the dose applied
- locally anaesthetic effect ([3]; L. Benes et al 1969): exhibits the well-known locally anaesthetic effects
- locally anaesthetic and spasmolytic effects ([3]; P. Svec et al 1976): locally anaesthetic and spasmolytic effects
- locally anaesthetic activity at decreased pH ([3]; media with decreased pH value at the acid side, S. Stole et al 1978): maintenance of its locally anaesthetic activity even in media with decreased pH value at the acid side
- mutation changes in reparative tests (Escherichia coli): have not been observed
- qualitative or quantitative mutations (Escherichia coli): have not been observed
- influence on passage of intestine content (in words) [1]: does not significantly influence the passage of intestine content
- intestinal passage of carbo adsorbens, complete intestine [1, 14]: 80.3 ± 1.2%
- intestinal passage of carbo adsorbens, small intestine ([1]; 100% is the complete intestine length, substance 20 mg/kg, reference 91.7 ± 2.2): 96.6 ± 0.95%
- antiulcerose / gastric cytoprotective effect [4]: antiulcerose effects with a marked gastric cytoprotective effect
- influence on passage of intestine content (in words) [2]: does not significantly influence the passage of intestine content
- intestinal passage of carbo adsorbens, small intestines [2]: 60.1 ± 1.5%
- LD50 (in vivo [5]; ip): 46.5 mg/kg
- LD50 (in vivo [5]; iv): 2.92 mg/kg
- hematological, biochemical and morphological indices or animal weight (rats; p.o. 0.1, 1, 10 mg/kg): neither hematological, biochemical and morphological indices or the animal weight have not been considerably influenced
- influence on behavior (rats; p.o. 0.1, 1, 10 mg/kg): has not shown any influence on the behavior of animals
- increase in weight (rats; p.o., two highest doses): in some cases lower than average
- changes in weight of dogs (dogs (beagle); both sexes, six months, p.o. 2, 10, 30 mg/kg): has not exhibited with doses of 2; 10; 30 mg/kg any extensive changes in the weight of dogs
- harmfulness of the substance in the six months period (dogs (beagle); p.o., dose range up to 2 mg/kg): no proofs about any harmfulness of the substance
- toxicity at the high doses (weight, behavior, mortality) (dogs (beagle); six months, p.o., two highest doses): a decrease in weight, defective behavior and mortality have occurred
- toxic effect in hematological, biochemical and morphological indices (dogs (beagle); six months, p.o., two lower doses): No toxic effect in hematological, biochemical and morphological indices has been observed with the two lower doses
- heart activity and psychomotoric changes (dogs (beagle); six months, p.o., two lower doses (exception)): minor changes in the heart activity, and particularly by influencing the pulse conductivity and further by psychomotoric unrest
- LD50 (in vivo [6]; ip): 70 mg/kg
- LD50 (in vivo [6]; iv): 11.8 mg/kg
- LD50 (in vivo [6]; po): 1110 mg/kg
- LD50 (in vivo [6]; sc): 295 mg/kg
- LD50 (in vivo [7]; ip): 56 mg/kg
- LD50 (in vivo [7]; iv): 10.3 mg/kg
- LD50 (in vivo [7]; po): 790 mg/kg
- LD50 (in vivo [7]; sc): 122 mg/kg
- LD50 (in vivo [8]; iv): 7.8 mg/kg
- LD50 (in vivo [8]; sc): 73.2 mg/kg
- mutation changes in reparative tests (Salmonella typhimurium): have not been observed
- qualitative or quantitative mutations (Salmonella typhimurium): have not been observed
- reduction of adenylate cyclase activity (adenylate cyclase): a significant reduction of adenylate cyclase activity
- LD50 (rat; ip): 75 mg/kg
- LD50 (rat; iv): 13.8 mg/kg
- LD50 (rat; po): 1030 mg/kg
- LD50 (rat; sc): 283 mg/kg
- occurrence of skeletal abnormalities (mice [9]): the same as in the reference group
- fetal weight, implantates, placenta and amniotic liquor (mice [10]; 0.21, 2.1, 8.4, 21, 42, 84 mg/kg): no changes in the amounts of fetal weight implantates, placenta and amniotio liquor were found
- fetuses with palate fissure (mice [10]; only at highest dose of 84 mg/kg): less than 10%
- LD50 (mice [11]; ip): 59 mg/kg
- LD50 (mice [11]; po): 840 mg/kg
- LD50 (mice [11]; sc): 128 mg/kg
- latent period up to the beginning of the diarrhea (mice [12]): 127.3 ± 6.3 min
- retention of stomach content [13]: unchanged
